32 molecules from patent publication US11174253B2, “Compound and pharmaceutical composition containing the same” (ALPHALA CO., LTD., priority 2017, dated 2021) can be followed below.

The structures appear in SMILES notation.

What is called viability is the share of living cells, or the viability signal relative to a control.

For the assay, the system named is hepatocellular carcinoma cell line Hep3B. The experiment in a line: Growth inhibition of Hep3B cells, 48 hr treatment, Hoechst 33342 nucleus count (GE InCell 2200). The assay is classed as cell-based. Conditions: Homo sapiens. The procedure: The potency of selected compounds was defined by the growth inhibition ability to the hepatocellular carcinoma cell line Hep3B. The Hep3B cells were treated with selected compounds for 48 hr under 37° C., 5% CO2, and 95% relative humidity.
The number of treated cells was determined by GE InCell 2200 system, and treated cells were stained with Hoechst 33342 which can reveal the remained nucleus in culture plate. The proportion of survival cells then were calculated with the ratio of treated/non-treated cells. The growth inhibition/cytotoxic effect of selected compounds were evaluated by the following protocol of NCI-60 screening platform. The human tumor cell lines are plating on a 96 well plate in a fixed density 24 hr prior compound treatment. Compounds with multiple concentrations are then added into each well for further 48 hr incubation. Cell viability is assessed by MTS method and the potency of compound is represented by GI50 and LC50 calculated by MTS result.
Herein, the “Ratio in 10 μM (%)” in the following Tables 1-6 refers to the ratio of the number of tumor cells treated with 10 μM of selected compounds to the number of non-treated tumer cells.

[1] abbreviates: Table 3, ratio of number of tumor cells treated with 10 μM compound to non-treated cells.
Where [2] appears, read: Table 6, ratio of number of tumor cells treated with 10 μM compound to non-treated cells.
[3] abbreviates: Table 1, ratio of number of tumor cells treated with 10 μM compound to non-treated cells.
Where [4] appears, read: Table 5, ratio of number of tumor cells treated with 10 μM compound to non-treated cells.

Regarding `CCOc1ccc(-c2nc(NC(=O)Cc3ccc4nc(N)sc4c3)sc2Cc2ccccc2)cc1` [Compound 3-14, 2-(2-aminobenzo[d]thiazol-6-yl)-N-(5-benzyl-4-(4-ethoxyphenyl)thiazol-2-yl)acetamide], the viability at 10 µM under setting [1] came out at 76%.

With `CC(C)(C)c1ccc(-c2nc(NC(=O)c3ccc([N+](=O)[O-])s3)sc2Cc2ccc(F)cc2)cc1` [Compound 6-37, N-(4-(4-(tert-butyl)phenyl)-5-(4-fluorobenzyl)thiazol-2-yl)-5-nitrothiophene-2-carboxamide], the viability at 10 µM under setting [2] turned out to be 39%.

On to `CN(C)c1ccc(-c2nnc(NC(=O)Cc3ccc4nc(N)sc4c3)s2)cc1` [Compound 1-9, 2-(2-aminobenzo[d]thiazol-6-yl)-N-(5-(4-(dimethylamino)phenyl)-1,3,4-thiadiazol-2-yl)acetamide], for which the viability at 10 µM under setting [3] stood at 60%.

Turning to `CCCOc1ccc(-c2nc(NC(=O)c3ccc([N+](=O)[O-])s3)sc2N2CCN(C)CC2)cc1` [Compound 6-22, N-(5-(4-methylpiperazin-1-yl)-4-(4-propoxyphenyl)thiazol-2-yl)-5-nitrothiophene-2-carboxamide], under setting [2], the viability at 10 µM came to 29%.

For the molecule `O=C(Nc1nc(-c2ccc(Br)s2)c(Oc2ccccc2)s1)c1ccc([N+](=O)[O-])s1` [Compound 5-42, N-(4-(5-bromothiophen-2-yl)-5-phenoxythiazol-2-yl)-5-nitrothiophene-2-carboxamide], under setting [4], the viability at 10 µM was determined as 55%.

For `O=C(Nc1nc(-c2ccc(Br)cc2)c(-c2ccccc2)s1)c1ccc([N+](=O)[O-])s1` [Compound 6-9, N-(4-(4-bromophenyl)-5-phenylthiazol-2-yl)-5-nitrothiophene-2-carboxamide], the viability at 10 µM under setting [2] came to 71%.

Turning to `CCOc1cc(-c2sc(NC(=O)c3ccc([N+](=O)[O-])s3)nc2-c2ccc(C)cc2)ccc1Br` [Compound 6-20, N-(5-(4-bromo-3-ethoxyphenyl)-4-(p-tolyl)thiazol-2-yl)-5-nitrothiophene-2-carboxamide], the viability at 10 µM under setting [2] amounted to 45%.

`Cc1cc(Oc2sc(NC(=O)c3ccc([N+](=O)[O-])s3)nc2-c2ccc(C(C)(C)C)cc2)cc(C)c1Br` [Compound 5-99, N-(5-(4-bromo-3,5-dimethylphenoxy)-4-(4-(tert-butyl)phenyl)thiazol-2-yl)-5-nitrothiophene-2-carboxamide]: under setting [4], the viability at 10 µM was 40%.

As for `CCOc1ccc(-c2nnc(NC(=O)Cc3ccc4nc(N)sc4c3)s2)nc1` [Compound 1-30, 2-(2-aminobenzo[d]thiazol-6-yl)-N-(5-(5-ethoxypyridin-2-yl)-1,3,4-thiadiazol-2-yl)acetamide], the viability at 10 µM under setting [3] turned out to be 37%.

As for `COCCOc1ccc(-c2nc(NC(=O)c3ccc([N+](=O)[O-])s3)sc2Oc2cccnc2)cc1` [Compound 5-15, N-(4-(4-(2-methoxyethoxy)phenyl)-5-(pyridin-3-yloxy)thiazol-2-yl)-5-nitrothiophene-2-carboxamide], the viability at 10 µM under setting [4] is 54%.

As for `CCOC(=O)c1sc(NC(=O)c2ccc([N+](=O)[O-])s2)nc1-c1ccc(C(C)(C)C)cc1` [Compound 6-42, ethyl 4-(4-(tert-butyl)phenyl)-2-(5-nitrothiophene-2-carboxamido)thiazole-5-carboxylate], the viability at 10 µM under setting [2] worked out at 49%.

In the case of `Nc1nc2ccc(CC(=O)Nc3nnc(-c4ccc(I)cc4)s3)cc2s1` [Compound 1-12, 2-(2-aminobenzo[d]thiazol-6-yl)-N-(5-(4-iodophenyl)-1,3,4-thiadiazol-2-yl)acetamide], the viability at 10 µM under setting [3] turned out to be 67%.

Turning to `CC(C)(C)c1ccc(-c2nc(NC(=O)c3ccc([N+](=O)[O-])s3)sc2C#N)cc1` [Compound 6-50, N-(4-(4-(tert-butyl)phenyl)-5-cyanothiazol-2-yl)-5-nitrothiophene-2-carboxamide], the viability at 10 µM under setting [2] turned out to be 53%.

In the case of `COc1ccc(-c2sc(NC(=O)Cc3ccc4nc(N)sc4c3)nc2-c2ccc(C)cc2)cc1OC` [Compound 3-5, 2-(2-aminobenzo[d]thiazol-6-yl)-N-(5-(3,4-dimethoxyphenyl)-4-(p-tolyl)thiazol-2-yl)acetamide], under setting [1], the viability at 10 µM is 85%.

For the molecule `CCOc1ccc(-c2nc(NC(=O)c3ccc([N+](=O)[O-])s3)sc2Oc2cccc(F)c2)cc1` [Compound 5-54, N-(4-(4-ethoxyphenyl)-5-(3-fluorophenoxy)thiazol-2-yl)-5-nitrothiophene-2-carboxamide], the viability at 10 µM under setting [4] worked out at 35%.

As to `CCCOc1ccc(-c2nc(NC(=O)Cc3ccc4nc(N)sc4c3)sc2-c2ccc(F)cc2)cc1` [Compound 3-6, 2-(2-aminobenzo[d]thiazol-6-yl)-N-(5-(4-fluorophenyl)-4-(4-propoxyphenyl)thiazol-2-yl)acetamide], the viability at 10 µM under setting [1] came out at 83%.

As to `COc1cccc(-c2nc(NC(=O)c3ccc([N+](=O)[O-])s3)sc2Br)c1` [Compound 6-14, N-(5-bromo-4-(3-methoxyphenyl)thiazol-2-yl)-5-nitrothiophene-2-carboxamide], the viability at 10 µM under setting [2] worked out at 83%.

Regarding `CC(C)(C)c1ccc(-c2nc(NC(=O)c3ccc([N+](=O)[O-])s3)sc2C(=O)N2CCOCC2)cc1` [Compound 6-49, N-(4-(4-(tert-butyl)phenyl)-5-(morpholine-4-carbonyl)thiazol-2-yl)-5-nitrothiophene-2-carboxamide], under setting [2], the viability at 10 µM worked out at 57%.

For the molecule `CCCOc1ccc(-c2nc(NC(=O)c3ccc([N+](=O)[O-])s3)sc2Oc2cc(C)c(Br)c(C)c2)cc1` [Compound 5-28, N-(5-(4-bromo-3,5-dimethylphenoxy)-4-(4-propoxyphenyl)thiazol-2-yl)-5-nitrothiophene-2-carboxamide], the viability at 10 µM under setting [4] is 32%.

`COc1cccc(-c2nc(NC(=O)c3ccc([N+](=O)[O-])s3)sc2Oc2ccccc2)c1` [Compound 5-4, N-(4-(3-methoxyphenyl)-5-phenoxythiazol-2-yl)-5-nitrothiophene-2-carboxamide]: under setting [4], the viability at 10 µM was 63%.

For `CCCOc1ccc(-c2nc(NC(=O)c3ccc([N+](=O)[O-])s3)sc2Oc2ccccc2OCC)cc1` [Compound 5-21, N-(5-(2-ethoxyphenoxy)-4-(4-propoxyphenyl)thiazol-2-yl)-5-nitrothiophene-2-carboxamide], the viability at 10 µM under setting [4] was determined as 28%.

For `CCCc1ccc(-c2nc(NC(=O)c3ccc([N+](=O)[O-])s3)sc2Oc2ccccc2F)cc1` [Compound 5-78, N-(5-(2-fluorophenoxy)-4-(4-propylphenyl)thiazol-2-yl)-5-nitrothiophene-2-carboxamide], under setting [4], the viability at 10 µM amounted to 33%.

Regarding `CCOc1ccc(-c2nc(N(C)C(=O)c3ccc([N+](=O)[O-])s3)sc2Oc2ccccc2)cc1` [Compound 5-82, N-(4-(4-ethoxyphenyl)-5-phenoxythiazol-2-yl)-N-methyl-5-nitrothiophene-2-carboxamide], under setting [4], the viability at 10 µM is 59%.

As for `CCOc1ccc(-c2nc(NC(=O)c3ccc([N+](=O)[O-])s3)sc2C(=O)Nc2cc(F)cc(F)c2)cc1` [Compound 6-27, N-(3,5-difluorophenyl)-4-(4-ethoxyphenyl)-2-(5-nitrothiophene-2-carboxamido)thiazole-5-carboxamide], the viability at 10 µM under setting [2] is 36%.

Take `CC(C)(C)c1ccc(-c2nc(NC(=O)c3ccc([N+](=O)[O-])s3)sc2-c2ccccc2F)cc1` [Compound 6-48, N-(4-(4-(tert-butyl)phenyl)-5-(2-fluorophenyl)thiazol-2-yl)-5-nitrothiophene-2-carboxamide]: the viability at 10 µM under setting [2] worked out at 45%.

For the molecule `CC(C)(C)c1ccc(-c2nc(NC(=O)c3ccc([N+](=O)[O-])s3)sc2-c2cccc(Cl)c2)cc1` [Compound 6-56, N-(4-(4-(tert-butyl)phenyl)-5-(3-chlorophenyl)thiazol-2-yl)-5-nitrothiophene-2-carboxamide], the viability at 10 µM under setting [2] is 28%.

As to `CCOc1ccccc1-c1nc(NC(=O)c2ccc([N+](=O)[O-])s2)sc1Oc1ccccc1` [Compound 5-5, N-(4-(2-ethoxyphenyl)-5-phenoxythiazol-2-yl)-5-nitrothiophene-2-carboxamide], the viability at 10 µM under setting [4] amounted to 47%.

Turning to `Nc1nc2ccc(CC(=O)Nc3nnc(-c4ccccc4OC(F)(F)F)s3)cc2s1` [Compound 1-11, 2-(2-aminobenzo[d]thiazol-6-yl)-N-(5-(2-(trifluoromethoxy)phenyl)-1,3,4-thiadiazol-2-yl)acetamide], the viability at 10 µM under setting [3] is 68%.

Consider `CCCCc1ccc(Oc2sc(NC(=O)c3ccc([N+](=O)[O-])s3)nc2-c2ccc(F)cc2)cc1` [Compound 5-65, N-(5-(4-butylphenoxy)-4-(4-fluorophenyl)thiazol-2-yl)-5-nitrothiophene-2-carboxamide], for which the viability at 10 µM under setting [4] stood at 43%.

As to `CCCCc1ccc(-c2nc(NC(=O)c3ccc([N+](=O)[O-])s3)sc2Oc2ccc(F)cc2)cc1` [Compound 5-94, N-(4-(4-butylphenyl)-5-(4-fluorophenoxy)thiazol-2-yl)-5-nitrothiophene-2-carboxamide], the viability at 10 µM under setting [4] was found to be 32%.

Turning to `O=C(Nc1nc(-c2cccc([N+](=O)[O-])c2)c(Br)s1)c1ccc([N+](=O)[O-])s1` [Compound 6-13, N-(5-bromo-4-(3-nitrophenyl)thiazol-2-yl)-5-nitrothiophene-2-carboxamide], the viability at 10 µM under setting [2] amounted to 81%.

Regarding `CCOc1cc(OCC)cc(-c2nc(NC(=O)c3ccc([N+](=O)[O-])s3)sc2Oc2ccccc2)c1` [Compound 5-36, N-(4-(3,5-diethoxyphenyl)-5-phenoxythiazol-2-yl)-5-nitrothiophene-2-carboxamide], the viability at 10 µM under setting [4] came out at 39%.
